The source of these data is US9364405B2, “Tyrosinase inhibitors” (Avon Products, Inc., priority 2013, dated 2016).

The assay deals with Mushroom tyrosinase. Nature of the assay: Mushroom tyrosinase assay. It is filed as biochemical. To be noted: L-Tyrosine substrate, 25° C., 30 min. On the procedure:
Mushroom tyrosinase and L-Tyrosine were obtained from Sigma-Aldrich, Inc. (St. Louis, Mo.). The enzyme activity was measured in buffer containing 100 mM phosphate buffer pH 6.8, 5% absolute ethanol, 2 micrograms/milliliter mushroom tyrosinase, and 0.2 mg/ml L-Tyrosine. The reaction (conversion of L-Tyrosine to DOPAchrome) was conducted in triplicates at 25° C. for 30 min, and absorbance was then measured at 492 nm. Kojic Acid was used as a positive control inhibitor in these assays. Percent change in tyrosinase activity relative to vehicle control was calculated.

Where [1] appears, read: test compound concentration 0.0010%.

On to `Cc1cc(C)cc(Nc2nc(-c3ccc(O)cc3O)cs2)c1` [AV4662], for which, under setting [1], the “Tyrosinase Inhibition (percent change in tyrosinase activity compared to DMSO vehicle control)” value is −46%. As to `CN1CCN(c2nc(-c3ccc(O)cc3O)cs2)CC1` [AV5370], the “Tyrosinase Inhibition (percent change in tyrosinase activity compared to DMSO vehicle control)” value is given as −75% under setting [1] and −59% (test compound concentration 0.0100%).
